Data taken from ChEMBL document CHEMBL1201862, “PubChem BioAssay data set” (2004).
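1) Cells in 96-well plates. 2) Compound, 48 h, 5 concentrations. 3) Linear interpolation between surrounding doses. 4) Unreached endpoint = highest concentration. At the GI50, growth is halved.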 Calls of active or inactive are those of the source. Cut-off read from the data, not from the text of the source: active = GI50 up to about 1.1 µM and inactive = higher.

Key:
Experiment in all cases: NCI anticancer screen, dose series, 48 h
MDA-N = system: MDA-N
SNB-78 = system: SNB-78
M19-MEL = system: M19-MEL
DMS-273 = system: DMS-273
KM-20L2 = system: KM-20L2
DLD-1 = system: DLD-1
DMS-114 = system: DMS-114
RXF 631 = system: RXF 631
XF498 = system: XF498

| Structure (SMILES) | GI50 (MDA-N) | GI50 (SNB-78) | GI50 (DMS-273) | GI50 (KM-20L2) | also measured |
| --- | --- | --- | --- | --- | --- |
| COc1ccc(CN/C=N/C(C#N)=C(\N)C#N)cc1OC | > 100 µM (inactive) | – | – | – | – |
| CC(NC(=O)OCc1ccccc1)NC(=O)C(CC(=O)OC(C)(C)C)NC(=O)OC(C)(C)C (stereo not given) | > 100 µM (inactive) | – | – | – | – |
| CCOC(=O)NC(Nc1ccc(S(=O)(=O)Nc2nc(C)cc(C)n2)cc1)(C(=O)OCC)C(F)(F)F (stereo not given) | > 100 µM (inactive) | – | – | – | – |
| CCCN(CCC)C(=O)c1c([N+](=O)[O-])cc(C(F)(F)F)cc1[N+](=O)[O-] | – | 35.2 µM (inactive) | 35.4 µM (inactive) | 22.6 µM (inactive) | GI50 (M19-MEL): 13.7 µM (inactive) |
| C[C@H]1C(=O)CC[C@]2(C)CCC(C(C)(C)O)CC12O (stereo not given in full) | – | > 100 µM (inactive) | > 100 µM (inactive) | > 100 µM (inactive) | GI50 (DLD-1): > 100 µM (inactive); GI50 (DMS-114): > 100 µM (inactive); GI50 (RXF 631): > 100 µM (inactive) |
| CN(C(=O)C12C3C4C5C3C1(C(=O)C13C6C7C8C6C1C8C73)C5C42)C(C)(C)C (stereo not given) | – | > 50 µM (inactive) | > 21.4 µM (inactive) | > 50 µM (inactive) | GI50 (DLD-1): > 23.2 µM (inactive); GI50 (XF498): > 50 µM (inactive); GI50 (DMS-114): > 23.6 µM (inactive); GI50 (M19-MEL): > 50 µM (inactive) |
| Cc1ccc(S(=O)(=O)NC(=N)N(C)N=O)cc1 | > 100 µM (inactive) | – | – | – | – |
| CCC(C)OC(=O)C1C2CCC(O2)C1C(=O)O (stereo not given) | – | > 100 µM (inactive) | > 42.8 µM (inactive) | > 44.9 µM (inactive) | GI50 (DLD-1): > 51.4 µM (inactive); GI50 (DMS-114): > 41.6 µM (inactive); GI50 (M19-MEL): > 60.7 µM (inactive) |
| COC(=O)/C=C\C(C#N)(C#N)/N=C/c1cccc(OC)c1 | 7.03 µM (inactive) | – | – | – | – |
| C1=C[C@]2(CCC13OCCO3)COc1ccccc12 | 35.6 µM (inactive) | – | – | – | – |
| CC(C)(C)c1cc(OCc2nnc3sc(S)nn23)c(Cl)cc1OCc1nnc2sc(S)nn12 | 18.9 µM (inactive) | – | – | – | – |
| O=C(O)CCC(NC(=O)c1ccc(Nc2nc3ccccc3nc2C(=O)O)cc1)C(=O)O (stereo not given) | > 100 µM (inactive) | – | – | – | – |
| COC(=O)CC(=O)OC | – | > 100 µM (inactive) | > 100 µM (inactive) | > 100 µM (inactive) | GI50 (DLD-1): > 100 µM (inactive); GI50 (XF498): > 100 µM (inactive); GI50 (DMS-114): > 100 µM (inactive); GI50 (M19-MEL): > 100 µM (inactive) |
| Clc1ccc(C2=Nc3ccccc3SC(c3ccc(Cl)c(Cl)c3)C2)c(Cl)c1 (stereo not given) | – | 18.3 µM (inactive) | 11.5 µM (inactive) | 18.3 µM (inactive) | GI50 (DLD-1): 12.6 µM (inactive); GI50 (XF498): 12.4 µM (inactive); GI50 (DMS-114): 9.89 µM (inactive); GI50 (M19-MEL): 16 µM (inactive) |
| CN(C)C(=S)/N=c1\ss/c(=N\C(=S)N(C)C)n1Cc1ccco1 | – | > 100 µM (inactive) | > 100 µM (inactive) | > 100 µM (inactive) | GI50 (DLD-1): > 100 µM (inactive); GI50 (DMS-114): > 100 µM (inactive); GI50 (M19-MEL): > 100 µM (inactive) |
| CC(C)(Sc1cc(C(C)(C)C)c(O)c(C(C)(C)C)c1)Sc1cc(C(C)(C)C)c(O)c(C(C)(C)C)c1 [PROBUCOL] | > 100 µM (inactive) | – | – | – | – |

| Structure (SMILES) | GI50 (MDA-N) | GI50 (SNB-78) | GI50 (DMS-273) | GI50 (KM-20L2) | also measured |
| --- | --- | --- | --- | --- | --- |
| Clc1ccc(SCCCCCCCCCCSc2ccc(Cl)cc2)cc1 | – | > 100 µM (inactive) | > 100 µM (inactive) | > 63.7 µM (inactive) | GI50 (DLD-1): > 100 µM (inactive); GI50 (XF498): > 100 µM (inactive); GI50 (DMS-114): > 100 µM (inactive); GI50 (M19-MEL): > 100 µM (inactive) |
| COc1c(-c2ccc(O)c(O)c2)oc2c(O)c(O)cc(O)c2c1=O | 61.5 µM (inactive) | – | – | – | – |
| C=C1CC(C)(c2cccc(Nc3nc4ccccc4c4occc34)c2)OC1=O (stereo not given) | 5.21 µM (inactive) | – | – | – | – |
| C/C(=N\NC(=O)c1ccncc1)c1ccccc1F | > 10 µM (inactive) | – | – | – | – |
| NC1=NC(=O)[C@H](Cc2c[nH]c3ccccc23)N1C(=O)OCc1ccccc1 | > 100 µM (inactive) | – | – | – | – |
| CC1Cc2cc(O)c(O)cc2-c2cc(O)c(O)cc2CC1C (stereo not given) | 3.07 µM (inactive) | – | – | – | – |
| CC(=O)Nc1ccc(-c2nnc(SCC(=O)Nc3cccc(Cl)c3)o2)cc1 | – | > 100 µM (inactive) | 17.9 µM (inactive) | 15.3 µM (inactive) | GI50 (DLD-1): 14.3 µM (inactive); GI50 (DMS-114): 1.36 µM (inactive); GI50 (M19-MEL): 17.3 µM (inactive) |
| Cn1nc2ccc3nccc(N4CCN(CCO)CC4)c3c2n1 | > 100 µM (inactive) | – | – | – | – |
| N=C(N)SCCON1C(=O)c2ccccc2C1=O | > 100 µM (inactive) | – | – | – | – |
| CCOC(=O)C1C(c2ccccc2)C2(C#N)C(=N)OC1(C)C2(C#N)C#N (stereo not given) | 14.7 µM (inactive) | – | – | – | – |
| COC(=O)C1CCC(=O)N1C(c1cc(OC)c(OC)c(OC)c1)c1cc(OC)c(OC)c(OC)c1 (stereo not given) | > 100 µM (inactive) | – | – | – | – |
| Cc1ccc(-c2cn3c(nc4ccccc43)c(/C=C/c3ccco3)n2)cc1 | 42.1 µM (inactive) | – | – | – | – |
| CCOC(=O)c1[nH]c2nc(SC)nc(NC)c2c1N | > 100 µM (inactive) | – | – | – | – |
| O=C1C=CC(=O)c2c1ccc1c3ccccc3n(Cc3ccc([N+](=O)[O-])cc3)c21 | > 100 µM (inactive) | – | – | – | – |
| c1cc2c(c(-c3c4ccccc4nc4ccccc34)c1)CC1(CC2)OCCO1 | > 100 µM (inactive) | – | – | – | – |
| c1ccc2c(c1)N=C(c1cccc3ccccc13)CC(c1cccc3ccccc13)S2 (stereo not given) | – | 5.53 µM (inactive) | 4.46 µM (inactive) | 3.24 µM (inactive) | GI50 (DLD-1): 3.6 µM (inactive); GI50 (XF498): 9.79 µM (inactive); GI50 (DMS-114): 2.74 µM (inactive); GI50 (M19-MEL): 5.53 µM (inactive) |
